biological target: T1, human RNR (histidine tagged human M1 and human M2 proteins) (Homo sapiens, UniProt P23921); assay: Human RNR inhibition effect (dCDP formation from CDP); type: biochemical; conditions: 10 μM CDP, 37° C. for 30 minutes, read-out: RNR inhibitory activity IC50
T1 construct: made in house; host or cells: Escherichia coli
T1 sequence (P23921 1-792): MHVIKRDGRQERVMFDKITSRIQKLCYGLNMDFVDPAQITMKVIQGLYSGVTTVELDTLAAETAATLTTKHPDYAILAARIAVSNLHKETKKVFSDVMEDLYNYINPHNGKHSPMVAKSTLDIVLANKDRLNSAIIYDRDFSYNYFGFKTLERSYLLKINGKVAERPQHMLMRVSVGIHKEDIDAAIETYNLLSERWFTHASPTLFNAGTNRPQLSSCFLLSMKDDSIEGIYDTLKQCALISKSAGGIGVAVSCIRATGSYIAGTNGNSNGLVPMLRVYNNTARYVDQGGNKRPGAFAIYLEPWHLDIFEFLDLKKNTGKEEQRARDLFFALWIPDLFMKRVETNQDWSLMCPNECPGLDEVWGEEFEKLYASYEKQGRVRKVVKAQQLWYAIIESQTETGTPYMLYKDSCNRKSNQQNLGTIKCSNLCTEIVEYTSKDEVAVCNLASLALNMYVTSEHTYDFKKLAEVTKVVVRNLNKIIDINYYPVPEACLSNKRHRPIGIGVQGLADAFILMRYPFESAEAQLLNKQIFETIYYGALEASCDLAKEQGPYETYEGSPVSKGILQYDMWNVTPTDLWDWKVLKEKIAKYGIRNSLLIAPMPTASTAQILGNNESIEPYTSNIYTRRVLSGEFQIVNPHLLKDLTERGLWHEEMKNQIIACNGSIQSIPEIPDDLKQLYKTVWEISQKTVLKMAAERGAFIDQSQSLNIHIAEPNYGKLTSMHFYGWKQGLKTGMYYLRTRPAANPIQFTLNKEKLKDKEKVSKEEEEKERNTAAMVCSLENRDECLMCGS
In short: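 His-tagged human M1 (isoform 1) and N-terminal 59-aa-truncated M2 (isoform 2), E. coli-expressed, Ni-purified, preincubated 20 min with compound (1% DMSO). Reaction with 10 μM CDP, 2 mM ATP, 0.24 mM NADPH, 6 mM DTT, 4 mM Mg acetate, 100 mM KCl, 50 mM HEPES pH 7.2, 30 min at 37° C. dCDP formed quantified by reverse-phase HPLC after heat stop.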

For `COc1cc(Cl)ccc1S(=O)(=O)N[C@H](c1n[nH]c(=O)o1)[C@H](C)c1c(F)ccc(-c2ccc(Cl)cc2)c1C` [Example 302, 4-chloro-N-((1S,2R)-2-(4′-chloro-4-fluoro-2-methyl-[1,1′-biphenyl]-3-yl)-1-(5-oxo-4,5-dihydro-1,3,4-oxadiazol-2-yl)propyl)-2-methoxybenzenesulfonamide], which IC50 is on record?
The IC50 was 490 nM.

Which IC50 does the source give for `Cc1ccc(F)c([C@@H](C)[C@H](NS(=O)(=O)c2ccc(Cl)c(C(N)=O)n2)c2n[nH]c(=O)o2)c1C` [Example 31, 3-chloro-6-(N-((1S,2R)-2-(6-fluoro-2,3-dimethylphenyl)-1-(5-oxo-4,5-dihydro-1,3,4-oxadiazol-2-yl)propyl)sulfamoyl)picolinamide] here?
The IC50 was 100 nM.

With `Cc1c(Cl)ccc(F)c1[C@@H](C)[C@H](NS(=O)(=O)c1ccc(Cl)c2c1OCCC2(C)N)c1n[nH]c(=O)o1` (single isomer, unassigned) [Example 330B] as the molecule, how does the IC50 read?
Its IC50 is 460 nM.

Which IC50 does the source give for `COc1cc(Cl)ccc1S(=O)(=O)N[C@H](c1n[nH]c(=O)o1)[C@H](C)c1c(F)ccc(-c2cc[nH]n2)c1C` [Example 301, 4-chloro-N-((1S,2R)-2-(6-fluoro-2-methyl-3-(1H-pyrazol-3-yl)phenyl)-1-(5-oxo-4,5-dihydro-1,3,4-oxadiazol-2-yl)propyl)-2-methoxybenzenesulfonamide] here?
Its IC50 is 290 nM.

With `Cc1ccc(F)c([C@@H](C)[C@H](NS(=O)(=O)c2ccc(F)c3c2OCCC3(C)O)c2n[nH]c(=O)o2)c1C` (single isomer, unassigned) [Example 224B] as the molecule, how does the IC50 read?
Its IC50 is 100 nM.

How did the IC50 turn out when `Cc1ccc(F)c([C@@H](C)[C@H](NS(=O)(=O)c2cccc3c2OCCC3(O)C(F)(F)F)c2n[nH]c(=O)o2)c1C` (stereo partly drawn) [Example 211A, N-((1S,2R)-2-(6-fluoro-2,3-dimethylphenyl)-1-(5-oxo-4,5-dihydro-1,3,4-oxadiazol-2-yl)propyl)-4-hydroxy-4-(trifluoromethyl)chroman-8-sulfonamide] was run?
The IC50 was 120 nM.

For `Cc1ccc(F)c([C@@H](C)[C@H](NS(=O)(=O)c2ccc(Cl)c3c2OCCC3(C)O)c2n[nH]c(=O)o2)c1C` (single isomer, unassigned) [Example 207B], which IC50 is on record?
The IC50 was 90 nM.

How did the IC50 turn out when `Cc1c(Br)ccc(F)c1[C@@H](C)[C@H](NS(=O)(=O)c1ccc(Cl)c2c1OCCC2=O)c1n[nH]c(=O)o1` [Example 124, N-((1S,2R)-2-(3-bromo-6-fluoro-2-methylphenyl)-1-(5-oxo-4,5-dihydro-1,3,4-oxadiazol-2-yl)propyl)-5-chloro-4-oxochroman-8-sulfonamide] was run?
Its IC50 is 90 nM.

Which IC50 does the source give for `Cc1ccc(F)c([C@@H](C)[C@H](NS(=O)(=O)c2cccc3[nH]ccc23)c2n[nH]c(=O)o2)c1C` [Example 152, N-((1S,2R)-2-(6-fluoro-2,3-dimethylphenyl)-1-(5-oxo-4,5-dihydro-1,3,4-oxadiazol-2-yl)propyl)-1H-indole-4-sulfonamide] here?
The IC50 was 710 nM.

`C[C@H](c1cccc2c1CCC2)[C@H](NS(=O)(=O)c1ccc(Br)cc1F)c1n[nH]c(=O)o1` [Example 60, 4-bromo-N-((1S,2R)-2-(2,3-dihydro-1H-inden-4-yl)-1-(5-oxo-4,5-dihydro-1,3,4-oxadiazol-2-yl)propyl)-2-fluorobenzenesulfonamide] was tested. Which IC50 did it give?
The IC50 was 990 nM.

For `CNC(=O)c1nc(S(=O)(=O)N[C@H](c2n[nH]c(=O)o2)[C@H](C)c2c(F)ccc(C)c2C)ccc1Cl` [Example 252, 3-chloro-6-(N-((1S,2R)-2-(6-fluoro-2,3-dimethylphenyl)-1-(5-oxo-4,5-dihydro-1,3,4-oxadiazol-2-yl)propyl)sulfamoyl)-N-methylpicolinamide], which IC50 is on record?
The IC50 was 60 nM.

With `Cc1ccc(F)c([C@@H](C)[C@H](NS(=O)(=O)c2cc(C(C)(C)O)c(Cl)cc2C(N)=O)c2n[nH]c(=O)o2)c1C` [Example 198, 5-chloro-2-(N-((1S,2R)-2-(6-fluoro-2,3-dimethylphenyl)-1-(5-oxo-4,5-dihydro-1,3,4-oxadiazol-2-yl)propyl)sulfamoyl)-4-(2-hydroxypropan-2-yl)benzamide] as the molecule, how does the IC50 read?
Its IC50 is 60 nM.

With `Cc1c(Cl)ccc(F)c1[C@@H](C)[C@H](NS(=O)(=O)c1ccc(Cl)c2c1OCCC2(C)O)c1n[nH]c(=O)o1` (single isomer, unassigned) [Example 209B] as the molecule, how does the IC50 read?
Its IC50 is 180 nM.

Which IC50 does the source give for `COc1cc(Cl)ccc1S(=O)(=O)N[C@H](c1n[nH]c(=O)o1)[C@H](C)c1c(F)ccc(-c2cccnc2)c1C` [Example 300, 4-chloro-N-((1S,2R)-2-(6-fluoro-2-methyl-3-(pyridin-3-yl)phenyl)-1-(5-oxo-4,5-dihydro-1,3,4-oxadiazol-2-yl)propyl)-2-methoxybenzenesulfonamide] here?
Its IC50 is 340 nM.

How did the IC50 turn out when `COc1cc(Cl)ccc1S(=O)(=O)N[C@H](c1n[nH]c(=O)o1)[C@H](C)c1c(F)ccc(C)c1C` [Example 83, 4-chloro-N-((1S,2R)-2-(6-fluoro-2,3-dimethylphenyl)-1-(5-oxo-4,5-dihydro-1,3,4-oxadiazol-2-yl)propyl)-2-methoxybenzenesulfonamide] was run?
The IC50 was 140 nM.

Which IC50 does the source give for `CC(O)c1nc(S(=O)(=O)N[C@H](c2n[nH]c(=O)o2)[C@H](C)c2cccc3c2CCC3)ccc1Cl` (stereo partly drawn) [Example 202, 5-chloro-N-((1S,2R)-2-(2,3-dihydro-1H-inden-4-yl)-1-(5-oxo-4,5-dihydro-1,3,4-oxadiazol-2-yl)propyl)-6-(1-hydroxyethyl)pyridine-2-sulfonamide] here?
The IC50 was 400 nM.

With `Cc1ccc(F)c([C@@H](C)[C@H](NS(=O)(=O)c2ccc(Cl)c3c2OCCC3=O)c2n[nH]c(=O)o2)c1C` [Example 88, 5-chloro-N-((1S,2R)-2-(6-fluoro-2,3-dimethylphenyl)-1-(5-oxo-4,5-dihydro-1,3,4-oxadiazol-2-yl)propyl)-4-oxochroman-8-sulfonamide] as the molecule, how does the IC50 read?
Its IC50 is 150 nM.

`Cc1ccc(F)c([C@@H](C)[C@H](NS(=O)(=O)c2ccccc2C(N)=O)c2n[nH]c(=O)o2)c1C` [Example 20, 2-(N-((1S,2R)-2-(6-fluoro-2,3-dimethylphenyl)-1-(5-oxo-4,5-dihydro-1,3,4-oxadiazol-2-yl)propyl)sulfamoyl)benzamide] was tested. Which IC50 did it give?
Its IC50 is 260 nM.

With `Cc1ccc(F)c([C@@H](C)[C@H](NS(=O)(=O)c2ccccc2C(=O)NO)c2n[nH]c(=O)o2)c1C` [Example 285, 2-(N-((1S,2R)-2-(6-fluoro-2,3-dimethylphenyl)-1-(5-oxo-4,5-dihydro-1,3,4-oxadiazol-2-yl)propyl)sulfamoyl)-N-hydroxybenzamide] as the molecule, how does the IC50 read?
Its IC50 is 310 nM.

How did the IC50 turn out when `Cc1c(Cl)ccc(F)c1[C@@H](C)[C@H](NS(=O)(=O)c1ccc(Cl)c2c1OCCC2O)c1n[nH]c(=O)o1` (single isomer, unassigned) [Example 238A] was run?
The IC50 was 110 nM.

For `COc1c(S(=O)(=O)N[C@H](c2n[nH]c(=O)o2)[C@H](C)c2cccc(C)c2C)ccc(Cl)c1C(C)O` (stereo partly drawn) [Example 203, 4-chloro-N-((1S,2R)-2-(2,3-dimethylphenyl)-1-(5-oxo-4,5-dihydro-1,3,4-oxadiazol-2-yl)propyl)-3-(1-hydroxyethyl)-2-methoxybenzenesulfonamide], which IC50 is on record?
Its IC50 is 180 nM.

Reference: patent US20200405697A1, “Antitumor Agent” (Taiho Pharmaceutical Co., Ltd, priority 2017, published 2020)
